We go through one compound from publication PMC12880750, “Mechanistic insights and in vivo HIV suppression by the BRD4-targeting small molecule ZL0580” (PLOS Pathogens, 2026).

Data set [1] relates to WT J-Lat cells (Clone […]). The data set can be described thus: RT-qPCR validation of differentially expressed genes, WT J-Lat cells. Format: cell-based, human. The note with it: 5 μM, 24 h, normalized to GAPDH. The method, then: To validate the RNA-Seq results, RT-qPCR analysis was performed on a subset of differentially expressed genes (DEGs) (Fig 3E). Eight representative DEGs were selected based on statistical significance (adjusted p values) and their involvement in key pathways identified by GSEA, including lipid metabolism/cholesterol biosynthesis (HMGCS1, SQLE, DHCR7) and cytokine signaling (ITK and DUSP8). Relative gene expression levels were normalized to the housekeeping gene GAPDH. […] As an additional control, RT-qPCR was also performed on RNA isolated from BRD4-knockout (KO) J-Lat cells that received the same treatments. The generation and characterization of BRD4-KO J-Lat cells were described previously.
RT-qPCR was performed as previously reported.
Background: Quantitative PCR measures a nucleic acid by following its amplification.

The test system of another data set is BRD4 BD1. The data set can be described thus: In vitro binding affinity (TR-FRET), BRD4 BD1. Set-up: species or system human. The note with it: from IC50 BD1 and BD2.
Data set [2] in a line: Body weight / tolerability in HIV-infected Hu-mice. The class given is in vivo, CD34+ Hu-NSG mice (Hu-mice). An excerpt: To assess general health of the mice and potential protective effects of the treatments, body weights of Hu-mice were closely monitored. […] There was a slight reduction in body weights of Hu-mice in the EV group following HIV infection. However, no statistically significant difference was detected as compared to the three treatment groups (Fig 6E).
(§1) Mice were 16-week-old at the initiation of the experiments. All mice received human CD34 + stem cells of a single donor and human immune cell reconstitution was confirmed for all mice. A total of 12 Hu-mice were initially included in the study with each tagged and assigned with a unique ID. At week 0, all Hu-mice were intravenously (IV) infected with HIV-1 JR-CSF at a single dose of 10ng HIV p24 equivalent virus per animal. Blood/plasma viral loads were monitored and quantified weekly by a single-step RT-qPCR until systemic HIV infection was established. […] At week 3, the remaining 11 Hu-mice were randomized into four groups for subsequent treatments: Empty Vehicle (EV) (n = 2), ART (n = 3), ZL0580 (n = 3), and ART + ZL0580 (n = 3). […] Plasma samples were collected from mice either weekly or biweekly for quantification of viral loads (RNA copies). Blood cells were also collected at weeks 7 and 13 for quantification of cell-associated HIV DNA in blood. Mouse weights were monitored after treatment.

In a further data set the test system is HIV-1 JR-CSF. The data set can be described thus: HIV suppression in HIV-infected humanized mice (plasma viral load). Format: in vivo, CD34+ Hu-NSG mice (Hu-mice). As to the method: Next, at week 0, all12 Hu-mice were intravenously inoculated with a single dose of HIV-1 JR-CSF (equivalent to 10 ng HIV p24 antigen per animal) (Fig 6A). Systemic HIV infection was confirmed in 11 out of the 12 mice at weeks 2 and 3 after HIV inoculation, based on the detection of plasma viral RNAs by a single-step RT-qPCR (Fig 6B-6C). Systemic HIV infection in the Hu-mice was also confirmed by ELISA quantification of plasma HIV p24 antigens at weeks 2 and 3 after HIV inoculation (Fig F in S1 Text). The 11 Hu-mice with successful HIV infection were then randomized into four treatment groups at week 3: empty vehicle control (EV) (n = 2), ART (n = 3), ZL0580 (n = 3), and ART + ZL0580 (n = 3). Drug formulations included: ART (Raltegravir 1.2 mg/mouse, Emtricitabine 3.2 mg/mouse, Tenofovir 3.2 mg/mouse), ZL0580 (3.8 mg/mouse), and a combination of both ART + ZL0580 (same concentration of individual compounds). All drugs were formulated in the buffer consisting of 10% DMSO, 10% Solutol HS 15, and 80% HP-β-CD (20%, w/v). The empty vehicle (EV) group received only the formulation buffer. Treatment regimens were initiated at week 3 and administered daily by intraperitoneal injection (Fig 6A). Plasma viral loads were closely monitored during the treatments.
All humanized mice used in this study weighed approximately 20 grams, and drug dosages were calculated accordingly. The following compounds were administered to mice daily: Raltegravir (Ral) at 60mg/kg (1.2 mg/mouse), Emtricitabine (Emt) at 160mg/kg (3.2 mg/mouse), Tenofovir (Ten) at 160mg/kg (3.2 mg/mouse), and ZL0580 at […] (3.8 mg/mouse). ART drugs were purchased from MedChemExpress. ZL0580 was synthesized in-house as previously reported. All compounds were dissolved in a formulation vehicle composed of 10% DMSO, 10% Solutol HS 15, and 80% hydroxypropyl-β-cyclodextrin (HP-β-CD, 20% w/v). Compounds were administered via intraperitoneal injection daily.
as §1, with “3). The control mice received a mixture of DMSO, Solutol HS 15, and hydroxypropyl-β-cyclodextrin (HP-β-CD, 20% w/v), which was considered the empty vehicle control (EV). ART and ZL0580 compounds were administered to mice via intraperitoneal injection daily for four weeks (from week 3 to week 7).” for “3).”
Viral RNA was isolated from plasma samples using the QIAamp Viral RNA Mini Kit (Qiagen) according to the manufacturer’s instructions. Quantification of viral RNA was performed using the PrimeTime One-Step RT-qPCR Master Mix (IDT) on a CFX Connect Real-Time PCR System (Bio-Rad). […]

Turning to `O=C(Nc1ccc(C(F)(F)F)cc1)Nc1ccc(S(=O)(=O)N2CCC[C@H]2C(=O)Nc2ccccc2)cc1` [ZL0580], in data set [1], the “Expression of HMGCS1, SQLE, DHCR7, ASS1, ITK, DUSP8 relative to NC” value is recorded as “upregulated”; the “Expression of KLF10 and WDR52 relative to NC” value is recorded as “downregulated”. Further, in the data set on BRD4 BD1, the “Selectivity (BRD4 BD1 vs BD2)” value is given as “about 7 fold”. Also, the “Tolerability in Hu-mice” value in data set [2] (daily intraperitoneal administration over the course of treatment) is reported as “well tolerated”. The “Body weights of Hu-mice” value in data set [2] (daily intraperitoneal administration, throughout the study) is listed as “maintained stable body weights”. Moreover, the “Delay of viral rebound following TI compared to ART alone” value in the data set with HIV-1 JR-CSF (ZL0580 monotherapy) is recorded as ~ 2 weeks. In addition, the “Plasma viral loads at week 5” value in the data set on HIV-1 JR-CSF (after two weeks of daily i.p. treatment, ZL0580 3.8 mg/mouse, ART Raltegravir 1.2, Emtricitabine 3.2, Tenofovir 3.2 mg/mouse) is “nearly undetectable levels”. Moreover, the “Plasma viral copies at week 7 (mean ± SEM)” value in the data set on HIV-1 JR-CSF (end of 4 weeks daily i.p. treatment, n = 3 per group) amounted to 105 ± 28 HIV RNA copies/ml. For the same compound, the “Area under the curve (AUC) of viral loads after TI, weeks 7 to 15, compared to EV control” value in the data set on HIV-1 JR-CSF (one-way ANOVA) is “significantly suppressed viral rebounds”. Besides, the “Plasma mean viral copies at week 9” value in the data set on HIV-1 JR-CSF (two weeks post treatment interruption (TI)) is “undetectable”.
